Key:
Sclerotinia sclerotiorum [1] = experiment: Antifungal activity against Sclerotinia sclerotiorum at 150 uM; assay type: functional
Rhizoctonia solani [2] = experiment: Antifungal activity against Rhizoctonia solani at 150 uM; assay type: functional
Fusarium graminearum = experiment: Antifungal activity against Fusarium graminearum at 150 uM; assay type: functional
Pyricularia oryzae = experiment: Antifungal activity against Pyricularia oryzae at 150 uM; assay type: functional
Phytophthora capsici = experiment: Antifungal activity against Phytophthora capsici at 150 uM; assay type: functional
Sclerotinia sclerotiorum [3] = experiment: Antifungal activity against Sclerotinia sclerotiorum; assay type: functional, organism-based
Rhizoctonia solani [4] = experiment: Antifungal activity against Rhizoctonia solani; assay type: functional, organism-based
HepG2 = experiment: Antiproliferative activity against human HepG2 cells assessed as inhibition of cell proliferation incubated for 72 hrs by MTT assay; assay type: functional, cell-based; conditions: HepG2, 72 h
MCF7 = experiment: Antiproliferative activity against human MCF7 cells assessed as inhibition of cell proliferation incubated for 72 hrs by MTT assay; assay type: functional, cell-based; conditions: MCF7, 72 h

Compound | inhibition at 150 µM (Sclerotinia sclerotiorum [1]) | inhibition at 150 µM (Rhizoctonia solani [2]) | inhibition at 150 µM (Fusarium graminearum) | inhibition at 150 µM (Pyricularia oryzae) | inhibition at 150 µM (Phytophthora capsici) | EC50 (Sclerotinia sclerotiorum [3]) | EC50 (Rhizoctonia solani [4]) | EC50 (HepG2) | EC50 (MCF7)
CC1(C)CCC[C@]2(C)[C@@H](Cc3cc(O)ccc3O)[C@](C)(O)CC[C@@H]12 | 39% | 48% | 39% | 28% | 28% | > 150 µM | > 150 µM | > 50 µM | 50 µM
CC1(C)CCC[C@@]2(C)C1CC[C@@]1(C)Oc3ccc(-c4ccncc4)cc3C[C@@H]12 (stereo partly specified) | < 60% | < 60% | < 60% | < 60% | < 60% |  |  |  | 
CC1(C)CCC[C@]2(C)[C@@H](Cc3ccc(O)cc3O)[C@](C)(O)CC[C@@H]12 | 81% | 91% | 41% | 9% | 37% | 15.2 µM | 41.7 µM | 10.2 µM | 11.9 µM
CC1(C)CCC[C@]2(C)[C@H]3Cc4ccc(O)cc4O[C@]3(C)CC[C@@H]12 | 47% | 72% | 49% | 50% | 53% |  |  |  | 
CC1(C)CCC[C@]2(C)[C@H]3Cc4cccc(O)c4O[C@]3(C)CC[C@@H]12 | 22% | 53% | 31% | 21% | 40% |  |  |  | 
CC1(C)CCC[C@@]2(C)C1CC[C@@]1(C)Oc3ccc(OS(=O)(=O)C(F)(F)F)cc3C[C@@H]12 (stereo partly specified) | < 60% | < 60% | < 60% | < 60% | < 60% |  |  |  | 
Cc1c(C[C@@H]2[C@@]3(C)CCCC(C)(C)[C@H]3CC[C@]2(C)O)c(O)cc(O)c1C[C@@H]1[C@@]2(C)CCCC(C)(C)[C@@H]2CC[C@@]1(C)O | 6% | 1% | 4% | -4% | 6% |  |  |  | 
CC1(C)CCC[C@@]2(C)C1CC[C@@]1(C)Oc3ccc(OC(=O)Nc4ccc(F)cc4)cc3C[C@@H]12 (stereo partly specified) | < 60% | < 60% | < 60% | < 60% | < 60% |  |  |  | 
CC1(C)CCC[C@@]2(C)C1CC[C@@]1(C)Oc3ccc(O)c(Cl)c3C[C@@H]12 (stereo partly specified) | < 60% | < 60% | < 60% | < 60% | < 60% |  |  |  | 
CC1(C)CCC[C@]2(C)[C@H]3Cc4c(O)cccc4O[C@]3(C)CC[C@@H]12 | 52% | 75% | 43% | 45% | 54% |  |  |  | 
CC1(C)CCC[C@]2(C)[C@@H](Cc3ccc(O)c(O)c3)[C@](C)(O)CC[C@@H]12 | 61% | 49% | 38% | 50% | 72% |  |  |  | 
COc1cc2c(cc1OC)O[C@]1(C)CC[C@H]3C(C)(C)CCC[C@]3(C)[C@H]1C2 | 21% | 13% | 29% | 9% | 5% |  |  |  | 
CC1(C)CCC[C@]2(C)[C@@H](Cc3c(O)cccc3O)[C@](C)(O)CC[C@@H]12 | 84% | 88% | 49% | 15% | 50% | 26.7 µM | 29.3 µM | 13.9 µM | 16 µM
Cc1cc(O)cc(O)c1C[C@@H]1[C@@]2(C)CCCC(C)(C)[C@@H]2CC[C@@]1(C)O | 82% | 92% | 56% | 65% | 29% | 40.4 µM | 35.2 µM | 11.1 µM | 11.3 µM
CC1(C)CCC[C@]2(C)[C@H]3Cc4cc(O)cc(O)c4[C@]3(C)CC[C@@H]12 | 43% | 68% | 60% | 49% | 65% |  |  |  | 
COc1ccc(NC(=O)Oc2ccc3c(c2)C[C@H]2[C@@](C)(CCC4C(C)(C)CCC[C@@]42C)O3)cc1 (stereo partly specified) | < 60% | < 60% | < 60% | < 60% | < 60% |  |  |  | 
CC1(C)CCC[C@]2(C)[C@@H](Cc3cc(O)cc(O)c3)[C@](C)(O)CC[C@@H]12 | 10% | -10% | 5% | -5% | 3% |  |  |  | 
CC1(C)CCC[C@]2(C)[C@@H](Cc3cccc(O)c3O)[C@](C)(O)CC[C@@H]12 | 42% | 42% | 36% | 24% | 24% |  |  |  | 
Cc1ccc(O)c(C[C@@H]2[C@@]3(C)CCCC(C)(C)[C@@H]3CC[C@@]2(C)O)c1 | 8% | -12% | -4% | -5% | 1% |  |  |  | 
CC1(C)CCC[C@]2(C)C3=CC4=CC(=O)C(=O)C=C4O[C@]3(C)CC[C@@H]12 | 37% | 15% | 44% | -2% | 18% |  |  |  | 
CC1(C)CCC[C@]2(C)[C@@H](Cc3cc(C(=O)O)ccc3O)[C@](C)(O)CC[C@@H]12 | 84% | 85% | 56% | 60% | 62% | 22.2 µM | 22.5 µM | > 50 µM | 50 µM
CC1(C)CCC[C@@]2(C)[C@H]1CCC1(C)Oc3ccc(Oc4cccnc4)cc3C[C@@H]12 (single isomer, unassigned) | < 60% | < 60% | < 60% | < 60% | < 60% |  |  |  | 
Cc1cc(O)c(C[C@@H]2[C@@]3(C)CCCC(C)(C)[C@@H]3CC[C@@]2(C)O)c(O)c1 [ALBACONOL] | 72% | 49% | 43% | 7% | 30% | 24.4 µM | > 150 µM | 10.4 µM | 10.1 µM
O=C(Nc1ccccc1-c1ccc(Cl)cc1)c1cccnc1Cl [BOSCALID] | 79% | 93% | 27% | 74% | 23% | 0.75 µM | 1.62 µM |  | 
